Assay results: patent publication US20040038855A1 (priority 1999, published 2004)
Read-outs that look alike come from different tables or passages of the source.

How the values were obtained:
rat MCH1 receptor = biological target: T1, rat MCH1 receptor (Rattus norvegicus, UniProt P97639); experiment: Binding affinity (Ki) at the rat MCH1 receptor
T1 construct: expressed in transfected cells
Procedure: For binding assays, pellets of transfected cells are suspended in ice-cold buffer (20 mM Tris.HCl, 5 mM EDTA, pH 7.4) and homogenized by sonication for 7 sec. The cell lysates are centrifuged at 200×g for 5 min at 4° C. The supernatants are then centrifuged at 40,000×g for 20 min at 4° C. The resulting pellets are washed once in the homogenization buffer and suspended in binding buffer (see methods for radioligand binding). Protein concentrations are determined by the method of Bradford (1976) using bovine serum albumin as the standard. Binding assays are usually performed immediately, however it is possible to prepare membranes in batch and store frozen in liquid nitrogen for future use.
Binding is performed at 25° C. for 1 hr. Incubations are terminated by rapid vacuum filtration over GF/C glass fiber filters, presoaked in 5% PEI using 50 mM Tris pH 7.4 containing 0.01% triton X-100 as wash buffer.
A methanolic solution of methyl (4S)-3-({[3-(4-[3-(acetylamino)phenyl]-3,6-dihydro-1(2H)pyridinyl)propyl]amino}carbonyl)-4-(3,4-difluorophenyl)-6-(methoxymethyl)-2-oxo-1,2,3,4-tetrahydro-5-pyrimidinecarboxylate was exposed to tritium gas at 1 atmosphere pressure in the presence of 5% palladium on carbon with stirring overnight to give the tritiated methyl (4S)-3-{[(3-{4-[3-(acetylamino)phenyl]-1-piperidinyl}propyl)amino]carbonyl}-4-(3,4-difluorophenyl)-6-(methoxymethyl)-2-oxo-1,2,3,4-tetrahydro-5-pyrimidinecarboxylate ((+)-isomer) After purification by reverse phase HPLC (Hypersil ODS, 4.6×100 mm, methanol:H2O:Et3N 10:90:1 to 100:0:1 in 15 min at 1.0 mL/min, with radiochemical and UV detection), this product was used as a radioligand in the MCH1 binding assays. The same procedure was carried out with H2 gas in place of ^3H2 to afford the non-radioactive version of Compound 10.

[1] = biological target: T2, human Dopamine D2 receptor (Homo sapiens, UniProt P14416); experiment: Binding affinity at the human dopamine D2 receptor; conditions: Table 3c; read-out: hD2 Ki
T2 construct: purchased BioSignal, Inc. (Montreal, Canada)
Description: (§1) Other receptors: Cell membranes expressing human dopamine D1, D2, D4 and rat D3 receptors were purchased through BioSignal, Inc. (Montreal, Canada). Binding assays using the histamine H1 receptor; dopamine receptors; and α1A, α1B, and α2 adrenergic receptors may be carried out according to the procedures described in U.S. Pat. No. 5,780,485, the disclosure of which is hereby incorporated by reference in its entirety into this application. Binding assays using the dopamine D5 receptor may be carried out according to the procedures described in U.S. Pat. No. 5,882,855, the disclosure of which is hereby incorporated by reference in its entirety into this application. Binding assays for the human α1D adrenergic receptor may be carried out according to the procedures described in U.S. Pat. No. 6,156,518, the disclosure of which is hereby incorporated by reference in its entirety into this application.

[2] = biological target: T3, human Histamine H1 receptor (Homo sapiens, UniProt P35367); experiment: Binding affinity at the human histamine H1 receptor; conditions: Table 3c; read-out: hH1 Ki
T3 construct: expressed in transfected cells
Description: as §1

[3] = biological target: T4, human Alpha-1a Adrenergic receptor (Homo sapiens, UniProt P35348); experiment: Binding affinity at the human alpha-1A adrenergic receptor; conditions: Table 3c; read-out: hAlpha-1a Ki
T4 construct: expressed in transfected cells
T4 sequence (P35348 1-466): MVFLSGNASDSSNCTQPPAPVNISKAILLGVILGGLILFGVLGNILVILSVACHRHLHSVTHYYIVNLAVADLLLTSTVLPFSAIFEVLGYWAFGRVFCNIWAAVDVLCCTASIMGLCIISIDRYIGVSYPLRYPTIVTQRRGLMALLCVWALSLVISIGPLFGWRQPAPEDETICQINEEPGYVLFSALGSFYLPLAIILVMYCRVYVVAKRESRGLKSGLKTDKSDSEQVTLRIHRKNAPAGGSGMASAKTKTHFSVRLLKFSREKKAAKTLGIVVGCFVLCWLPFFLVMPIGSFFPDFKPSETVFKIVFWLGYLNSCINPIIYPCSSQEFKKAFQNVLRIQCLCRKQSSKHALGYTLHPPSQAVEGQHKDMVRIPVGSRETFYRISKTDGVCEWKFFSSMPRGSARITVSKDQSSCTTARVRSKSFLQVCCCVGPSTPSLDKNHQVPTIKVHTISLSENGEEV
Description: as §1

[4] = Examples 38-141, read-out: Ki (nM) rMCH1

T1 sequence (P97639 whole entry): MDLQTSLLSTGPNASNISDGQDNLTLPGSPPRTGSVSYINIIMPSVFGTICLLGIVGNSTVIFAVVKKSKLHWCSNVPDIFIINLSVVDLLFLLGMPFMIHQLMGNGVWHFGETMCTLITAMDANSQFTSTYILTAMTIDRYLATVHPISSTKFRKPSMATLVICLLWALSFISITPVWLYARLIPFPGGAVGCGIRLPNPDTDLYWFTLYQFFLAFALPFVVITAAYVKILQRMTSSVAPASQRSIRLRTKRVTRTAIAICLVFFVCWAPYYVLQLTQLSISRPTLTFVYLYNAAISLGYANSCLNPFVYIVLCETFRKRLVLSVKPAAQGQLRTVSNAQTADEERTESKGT
T2 sequence (P14416 whole entry): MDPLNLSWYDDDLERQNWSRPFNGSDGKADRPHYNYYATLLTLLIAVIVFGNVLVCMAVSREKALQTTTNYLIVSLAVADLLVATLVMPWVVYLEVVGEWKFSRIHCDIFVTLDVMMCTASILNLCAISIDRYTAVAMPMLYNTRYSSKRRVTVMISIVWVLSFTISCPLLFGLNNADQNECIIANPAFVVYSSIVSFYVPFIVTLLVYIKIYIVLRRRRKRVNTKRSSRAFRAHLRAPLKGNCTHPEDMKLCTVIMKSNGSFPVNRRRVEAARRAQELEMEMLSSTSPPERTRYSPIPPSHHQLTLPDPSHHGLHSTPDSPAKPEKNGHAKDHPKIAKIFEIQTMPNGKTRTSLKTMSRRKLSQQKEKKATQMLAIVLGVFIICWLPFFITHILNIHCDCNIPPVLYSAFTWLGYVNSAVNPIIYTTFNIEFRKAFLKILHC
T3 sequence (P35367 whole entry): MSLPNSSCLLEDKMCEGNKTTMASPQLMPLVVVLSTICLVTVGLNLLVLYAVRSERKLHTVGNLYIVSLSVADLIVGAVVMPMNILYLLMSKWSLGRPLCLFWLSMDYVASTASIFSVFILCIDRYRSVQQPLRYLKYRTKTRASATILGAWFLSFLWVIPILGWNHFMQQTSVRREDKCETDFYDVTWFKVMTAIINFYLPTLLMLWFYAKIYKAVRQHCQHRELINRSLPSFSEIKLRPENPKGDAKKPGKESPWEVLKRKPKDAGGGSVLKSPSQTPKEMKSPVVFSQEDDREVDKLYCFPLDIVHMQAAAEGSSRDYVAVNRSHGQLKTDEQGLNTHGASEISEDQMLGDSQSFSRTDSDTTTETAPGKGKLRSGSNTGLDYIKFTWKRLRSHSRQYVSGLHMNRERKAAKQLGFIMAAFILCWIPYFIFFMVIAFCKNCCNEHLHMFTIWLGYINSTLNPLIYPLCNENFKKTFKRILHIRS

Ki (rat MCH1 receptor; [4]) [nM]	Ki (rat MCH1 receptor; Table 3c, read-out: rMCH1 Ki) [nM]	Ki [1] [nM]	Ki [2] [nM]	Ki [3] [nM]	Structure (SMILES)
204	204	–	–	–	CC(=O)Nc1cccc(C2CCN(CCCNC(=O)N3C(=O)NC4=C(C(=O)OC4)C3c3ccc4nonc4c3)CC2)c1 (centres unmarked) [Example 55]
197	197	–	–	–	O=C(CCCN1CCC(c2cccc(NC(=O)C3CCCCC3)c2)CC1)c1ccc(Cl)cc1 [Example 67]
11.9	11.9	–	–	61	COc1cccc(CC(=O)Nc2cccc(C3CCN(CCCC(=O)c4ccc(Cl)cc4)CC3)c2)c1 [Example 69]
167	167	–	–	–	COCC(=O)Nc1cccc(C2CCN(CCCC(=O)c3ccc(Cl)cc3)CC2)c1 [Example 70]
720	720	–	–	–	CS(=O)(=O)Nc1cccc(C2CCN(CCCC(=O)c3ccc(Cl)cc3)CC2)c1 [Example 71]
272	272	–	–	–	CCS(=O)(=O)Nc1cccc(C2CCN(CCCC(=O)c3ccc(Cl)cc3)CC2)c1 [Example 72]
342	342	–	–	–	CC(=O)Nc1cccc(C2CCN(CCCC(=O)c3ccccc3)CC2)c1 [Example 73]
29.5	29.5	782	–	115	CC(C)C(=O)Nc1cccc(C2CCN(CCCC(=O)c3ccccc3)CC2)c1 [Example 74]
21	21	470	–	41.3	COc1cccc(CC(=O)Nc2cccc(C3CCN(CCCC(=O)c4ccccc4)CC3)c2)c1 [Example 76]
630	630	–	–	–	COc1ccc(C(=O)CCCN2CCC(c3cccc(NC(C)=O)c3)CC2)c(OC)c1 [Example 77]
67	67	1250	–	127	COc1cccc(CC(=O)Nc2cccc(C3CCN(CCCC(=O)c4ccc(OC)cc4OC)CC3)c2)c1 [Example 80]
463	463	–	–	–	CC(=O)Nc1cccc(C2CCN(CCCC(=O)c3ccc(Oc4ccccc4)cc3)CC2)c1 [Example 81]
192	192	1980	–	516	CC(C)C(=O)Nc1cccc(C2CCN(CCCC(=O)c3ccc(Oc4ccccc4)cc3)CC2)c1 [Example 82]

Second part, the molecule before the results:

Structure (SMILES)	Ki (rat MCH1 receptor; [4]) [nM]	Ki (rat MCH1 receptor; Table 3c, read-out: rMCH1 Ki) [nM]	Ki [1] [nM]	Ki [2] [nM]	Ki [3] [nM]
COCC1=C(C(=O)OC)[C@H](c2ccc(F)c(F)c2)N(C(=O)NCCCN2CCC(c3cccc(N)c3)CC2)C(=O)N1 [Example 38, METHYL (4S)-3-[({3-[4-(3-AMINOPHENYL)-1-PIPERIDINYL]PROPYL}AMINO)CARBONYL]-4-(3,4-DIFLUOROPHENYL)-6-(METHOXYMETHYL)-2-OXO-1,2,3,4-TETRAHYDRO-5-PYRIMIDINECARBOXYLATE]	1.34	1.34	2370	379	23.8
COCC1=C(C(=O)NCCCN2CCC(c3cccc(NC(=O)CC(C)(C)C)c3)CC2)[C@@H](c2ccc(F)c(F)c2)NC(=O)N1 [Example 49]	225	225	–	–	–
Cc1ccc(C(=O)CCCN2CCC(c3cccc(NC(=O)C4CCCCC4)c3)CC2)cc1C [Example 59]	768	768	–	–	–
Cc1ccc(C(=O)CCCN2CCC(c3cccc(NC(=O)Cc4ccccc4)c3)CC2)cc1C [Example 60]	357	357	–	–	–
COCC(=O)Nc1cccc(C2CCN(CCCC(=O)c3ccc(C)c(C)c3)CC2)c1 [Example 62]	274	274	–	–	–
Cc1ccc(C(=O)CCCN2CCC(c3cccc(NS(C)(=O)=O)c3)CC2)cc1C [Example 63]	1000	1000	–	–	–
CCS(=O)(=O)Nc1cccc(C2CCN(CCCC(=O)c3ccc(C)c(C)c3)CC2)c1 [Example 64]	627	627	–	–	–
O=C(Cc1ccccc1)Nc1cccc(C2CCN(CCCC(=O)c3ccccc3)CC2)c1 [Example 75]	506	506	–	–	–
COc1ccc(C(=O)CCCN2CCC(c3cccc(NC(=O)Cc4ccccc4)c3)CC2)c(OC)c1 [Example 79]	1040	1040	–	–	–
